Values joined by “and” are separate entries in the source; they are usually repeats but may differ in a detail not shown here. Equal values may be shown once. Read-outs that look alike come from different tables or passages of the source.
What was measured:
[1] = Tolerability after oral or intravenous administration; set-up: species or system mouse (Swiss albino); conditions: mouse, in vivo, 7 days observation, read-out: Tolerability, dose
Protocol: The test was conducted in male Swiss albino mice weighing 22-24 g.
A group of animals (4 animals/dose) which had been kept fasting for 18 hours, were orally administered the compounds ST 557, ST 563, ST 564 and ST 570 dissolved in twice distilled water.
A further group of animals, which had free access to food and water, were administered intravenously the same compounds dissolved in saline it pH 7. All the animals were kept under observation for 7 days.

[2] = system: murine peritoneal exudate cells (PEC); assay: "In vitro-ex vivo" effect on the phagocytic activity of exudate peritoneal cells (SRBC phagocytosis); set-up: species or system mouse (B6 D2 F1); conditions: 26 mg/kg/day i.p. (so in the source)
[3] = system: peritoneal macrophages of treated mice; target tumor cells; assay: "In vitro-ex vivo" effect on the cytostatic activity of peritoneal macrophages; set-up: species or system mouse (B6 D2 F1); tumor targets human
Protocol: Assessment of the "in vitro-ex vivo" effect of ST 557, ST 563 and ST 570 on the cytostatic activity of peritoneal macrophages
Male B6 D2 F1 mice aged 7-9 weeks (5 animals per group) were used.
The compounds were administered i.p. (25 mg/kg/day), ST 557 and ST 563 were also administered per os (100 mg/kg/day) from day -5 to day -1 (peritoneal cell harvesting at day 0).
The macrophages and target tumor cell lines were prepared as in test 1 and their concentrations were adjusted to 1×10^6 M/ml and 5×10^4 cell/ml, respectively.
Volumes of tumor cells were added to the macrophage preparations so as to obtain Effector/Target ratios of 10:1, 20:1 and 40:1.
Each sample was pulsed with ^3 H-TdR for 18 hours in order to label the tumor cells, which were then collected on filters and counted in a beta-counter.
The macrophage cytostatic activity is expressed as percentage inhibition of tumor cell replication, by assessing the radioactivity incorporated by the tumor cells in each sample with respect to the maximum radioactivity incorporated by a sample consisting of tumor cells only. [formula]

[4] = system: murine peritoneal macrophages; tumor targets Daudi and CEM-CM3; assay: "In vitro-ex vivo" effect on the cytotoxic activity of peritoneal macrophages (lysis of 3H-TdR labelled tumor cells); set-up: species or system mouse (B6 D2 F1, C57B16); tumor targets human
Protocol: Assessment of the "in vitro-ex vivo" effect of ST 557, ST 563, ST 570 and ST 626 on the cytotoxic activity of peritoneal macrophages (M)
Male hybrid B6 D2 F1 aged 7-9 weeks and male inbred mice C57B16 aged 8 weeks were used (4 animals/group).
All the compounds were administered i.p. (25 mg/kg/day). ST 557 was also administered per os (100 mg/kg/day) from day -5 to day -1 (peritoneal exudate cell [PEC] harvesting at day 0).
PEC were obtained from sacrificed animals, 24 hours following the end of treatment, via repeated washings of the abdominal cavity. The peritoneal exudates obtained from each group of animals were pooled.
The macrophage percentage was assessed by counting in a Burker chamber; cell suspensions (concentration=2×10^6 M/ml) were prepared.
The macrophage cytotoxic activity was assessed using the following two tumor cell lines as targets: Daudi, derived from a human lymphoblastoma and CEM-CM3, derived from human lymphoblastic leukemia (both lines are disclosed in ATCC--American Type Culture Collection--Cell lines of hybridoma, 5th Ed.--1985).
The experimental procedure is substantially the same as that described by Herscowitz, H. B. (1981)--Manual of Macrophage Methodology. Dekker M, Editor.
In particular, samples of cell lines were labelled with ^3 H-TdR (tritiated thymidine) and their concentration was adjusted to 5×10^4 cells/ml. They were then added to the macrophage preparations (using 96-well microtiter plates) and the volumes were adjusted so as to obtain Effector (macrophage)/Target (tumor cell) ratios of 20:1; 40:1 and 80:1 in an overall volume of 0.3 ml/well.
Three replicates for each sample were prepared; after 48 and 72 hours of incubation at 37° C. in 5% CO2. Aliquots of 0.1 ml of supernatant were drawn out from each well and counted in a β-counter.
The macrophage cytotoxic activity results in a tumor cell lysis that causes the release of the radioactivity incorporated by the cells into the supernatant.
Based on the βeta-counter data (in cpm) this activity is expressed as the percentage of radioactivity released following lysis with respect to the radioactivity incorporated by the tumor cells.
The relevant formulas are as follows: [formula]
The measures carried out on the samples account for a certain degree of lysis occurring spontaneously in cultured tumor cells not exposed to macrophages. Total radioactivity incorporated by the tumor cells is calculated by conducting a lysis with 1% SDS in distilled water.

[5] = system: murine peritoneal exudate cells (PEC); assay: "In vitro-ex vivo" effect on the phagocytic activity of exudate peritoneal cells (SRBC phagocytosis); set-up: species or system mouse (B6 D2 F1); conditions: for SRBC per phagocytizing cell: average number of SRBC in each phagocyte
Protocol: Assessment of the "in vitro-ex vivo" effect of ST 557, ST 563, ST 564, ST 570, ST 608 and ST 626 on the phagocytic activity of exudate peritoneal cells (PEC)
Male B6 D2 F1 mice aged 6-8 weeks (5 animals each group) were used.
The compounds were administered i.p. (25 mg/kg/day), ST 557, ST 563 and ST 626 were also administered per os (100 mg/kg/day) from day -5 to day -1 (PEC harvesting at day 0).
The experimental procedure was substantially the same as that described by Williams et al., in "Methods in Immunology and Immunochemistry", Acad. Press. 5: 261 (1976).
In particular, 24 hours following the end of the treatment, PECs from each experimental group were harvested, pooled and their concentration was adjusted to 4×10^6 cells/ml.
To volumes of 250 μl of each PEC sample were added equal volumes of 0.4% SRBC (Sheep Red Blood Cells) opsonized with hyperimmune serum.
The samples (duplicate) were incubated for 1 hour and then subjected to hypotonic shock in order to remove the non-phagocytized SRBC. After restoring the osmolarity, the phagocytes were cytocentrifuged, stained with a differential dye and observed under the microscope.
The results were expressed as:
(a) percentage of cells that have phagocytized with respect to 100 phagocytizing cells;
(b) total number of phagocytized SRBC;
(c) average number of SRBC in each phagocyte.

splenocytes = assay: "In vitro-ex vivo" effect on the mytogen (PHA, LPS)-induced splenocyte proliferation in mice; set-up: species or system mouse (B6 D2 F1); conditions: 25 mg/kg/day i.p.
Protocol: Assessment of the "in vitro-ex vivo" effect of ST 557, ST 563, ST 608 on the mytogen (PHA, LPS)-induced splenocyte proliferation in mice
Male B6 D2 F1 mice aged 6-10 weeks (4 animals per group) were used.
The compounds were administered i.p. 25 mg/kg/day, from day -5 to -1 (spleen excision at day 0).
PHA (active on T lymphocytes) and LPS (active on B lymphocytes) were used as mytogens. Each mytogen was tested at three different concentrations (suboptimal, optimal, superoptimal): 0.5, 4 and 6 mcg/ml/well and 0.5, 150 and 500 mcg/ml/well, respectively.
The experimental procedure was conducted substantially as described by Kirchner et al., "Splenic suppressor macrophages induced in mice by injection of C. parvum", J. Immunol., 1975, 115: 1212.
In particular, the cell suspensions obtained from the spleens of the animals of the same group were pooled and the cell concentration was adjusted to 5×10^6 cells/ml.
To volumes of 0.1 ml of each sample, equal volumes of the mytogen preparations were added so as to obtain, for each mytogen, the previously indicated final concentrations.
Each sample was prepared in triplicate in U-bottom microtiters. A control, to which 0.1 ml of medium were added instead of the mytogen, was also prepared. The control permits the extent of spontaneous proliferation in the absence of stimulation to be assessed.
The samples were incubated at 37° C. for 48 hours and then they were pulsed with 20 μl ^3 H-TdR (25 μCi/ml).
After 18 hours of further incubation, the cells were collected on filters and counted in a beta-counter.
The results of each sample are expressed by calculating the value of the area under the curve (AUC) obtained by plotting the values of the incorporated radioactivity (in cpm) versus the various concentrations of each mytogen.
In addition to AUC, the stimulation index (SI) is also considered, that is defined as follows. [formula]

[6] = 48 hours, E/T 20:1, 25 mg/kg/day i.p., B6 D2 F1
[7] = 48 hours, E/T 20:1, 25 mg/kg/day i.p., repeated experiment, B6 D2 F1
[8] = 48 hours, E/T 20:1, 25 mg/kg/day i.p., repeated experiment, C57B16 mice
[9] = 48 hours, E/T 40:1, 25 mg/kg/day i.p., B6 D2 F1
[10] = 48 hours, E/T 40:1, 25 mg/kg/day i.p., repeated experiment, B6 D2 F1
[11] = 48 hours, E/T 40:1, 25 mg/kg/day i.p., repeated experiment, C57B16 mice
[12] = 48 hours, E/T 80:1, 25 mg/kg/day i.p., repeated experiment, B6 D2 F1
[13] = 72 hours, E/T 20:1, 25 mg/kg/day i.p., B6 D2 F1
[14] = 72 hours, E/T 20:1, 25 mg/kg/day i.p., repeated experiment, B6 D2 F1
[15] = 72 hours, E/T 20:1, 25 mg/kg/day i.p., repeated experiment, C57B16 mice
[16] = 72 hours, E/T 40:1, 25 mg/kg/day i.p., B6 D2 F1
[17] = 72 hours, E/T 40:1, 25 mg/kg/day i.p., repeated experiment, B6 D2 F1
[18] = 72 hours, E/T 40:1, 25 mg/kg/day i.p., repeated experiment, C57B16 mice
[19] = 72 hours, E/T 80:1, 25 mg/kg/day i.p., repeated experiment, B6 D2 F1

Row | SMILES | % lysis of tumor target [4, 6] [%] | % lysis of tumor target [4, 7] [%] | % lysis of tumor target [4, 8] [%] | % lysis of tumor target [4, 9] [%] | % lysis of tumor target [4, 10] | % lysis of tumor target [4, 11] [%] | % lysis of tumor target [4, 12] | % lysis of tumor target [4, 13] [%] | % lysis of tumor target [4, 14] [%] | % lysis of tumor target [4, 15] [%] | % lysis of tumor target [4, 16] [%] | % lysis of tumor target [4, 17] | % lysis of tumor target [4, 18] [%] | % lysis of tumor target [4, 19] | Fagocytizing cells ([5]; 25 mg/kg/day i.p.) [%] | Total n° SRBC phagocytized ([5]; 25 mg/kg/day i.p.) | SRBC per phagocytizing cell ([5]; 25 mg/kg/day i.p.) | also measured
1 | CCN(CC(O)c1ccccc1)C1CCc2cc(OC)c(OC)cc2C1 (stereo not shown) [ST 570, 2-[(N-ethyl, N-2-hydroxy-2-phenylethyl)amino]-6,7-dimethoxytetraline] | 14.0 ± 0.7 | 9.0 ± 0.4 | 8.8 ± 1.2 | 34.7 ± 1.2 | 10.9 ± 1.0% | 13.0 ± 0.5 | 19.0 ± 1.0% | 19.3 ± 0.7 | 13.2 ± 0.2 | 10.8 ± 1.5 | 45.4 ± 2.1 | 15.7 ± 0.8% | 14.9 ± 0.3 | 25.3 ± 1.0% | – | – | – | MTD at 168 h ([1]; iv): > 20 mg/kg; MTD at 168 h ([1]; po, os, fasting 18 hours): > 50 mg/kg; Fagocytizing cells [2]: 41.0%; SRBC per phagocytizing cell ([2]; average number of SRBC in each phagocyte): 3.3; % of inhibition of target tumor growth ([3]; E/T 20:1, 25 mg/kg/day i.p.): 38.3 ± 2.5%; % of inhibition of target tumor growth ([3]; E/T 40:1, 25 mg/kg/day i.p.): 71.0 ± 2.4%; % lysis of tumor target ([4]; 48 hours, E/T 80:1, 25 mg/kg/day i.p., repeated experiment, C57B16 mice): 14.6 ± 0.6%; % lysis of tumor target ([4]; 72 hours, E/T 80:1, 25 mg/kg/day i.p., repeated experiment, C57B16 mice): 16.2 ± 0.8%
2 | CCCNC1CCc2cc(OC(C)=O)c(OC(C)=O)cc2C1 (stereo not shown) [ST 608, 2-N-propylamino-6,7-diacetoxytetraline] | – | – | – | – | – | – | – | – | – | – | – | – | – | – | 41.0 | 137.5 | 3.30 | AUC (area under curve, incorporated radioactivity vs mytogen concentration) (splenocytes; LPS): 10333 ± 807 ×10^-3 and 18054 ± 970 ×10^-3 and 14490 ± 433 ×10^-3 and 15892 ± 339 ×10^-3; S.I. (stimulation index) (splenocytes; LPS): 1.27 and 1.10 and 1.20 and 1.06; AUC (area under curve, incorporated radioactivity vs mytogen concentration) (splenocytes; PHA): 183 ± 6 ×10^-3 and 128 ± 4 ×10^-3 and 146 ± 4 ×10^-3 and 233 ± 2 ×10^-3; S.I. (stimulation index) (splenocytes; PHA): 1.11 and 1.04 and 1.07 and 1.12
3 | COc1cc2c(cc1F)CCC(N)C2 (stereo not shown) [ST 626, 2-amino-6-fluoro-7-methoxytetraline] | 7.4 ± 0.2 | 8.0 ± 0.8 | 11.8 ± 0.6 | 12.8 ± 0.8 | 18.7 ± 0.1% and 11.6 ± 0.7% | 12.7 ± 0.1 | 18.8 ± 0.1% and 28.0 ± 5.6% | 10.8 ± 0.3 | 12.3 ± 0.6 | 12.6 ± 0.1 | 17.6 ± 0.8 | 27.5 ± 0.6% and 14.3 ± 0.6% | 13.5 ± 0.7 | 28.0 ± 0.7% and 32.0 ± 4.3% | 41.0 | 137.5 | 3.30 | Fagocytizing cells ([5]; 100 mg/kg/day os): 57.0%; Total n° SRBC phagocytized ([5]; 100 mg/kg/day os): 222.0; SRBC per phagocytizing cell ([5]; 100 mg/kg/day os): 3.89
